Series [1] relates to human breast and ovarian cancer cells. The note with it: cited from earlier work.
For series [2] the following is noted: cited from earlier work.
The conditions of series [3]: prodrug alone; cited from earlier work.
For a further series, the system named is Walker carcinoma cells. The note with it: cited from earlier work.
In another series the test system is Walker 256 rat carcinoma. The note with it: cited from earlier work.
The test system of series [4] is mouse and human tumor cell lines. The note with it: cited from earlier work.
Series [5] addresses nitroreductase enzyme from E. coli (Escherichia coli, UniProt P38489). The note with it: cited from earlier work.
Another series deals with SCCVII tumor cells. Description: Cell killing of SCCVII cells exposed to CB1954, NADH and supernatant from wild type or recombinant C. acetobutylicum (colony growth). The note with it: 2 hr incubation, NADH 500 μM.
The next series deals with SCCVII cells. Kind of series: Growth inhibition of SCCVII cells by 5-FC or 5-FU with or without cell extract from recombinant C. sporogenes. The protocol: The function of the C. sporogenes-derived cytosine deaminase was tested by assaying its ability to convert the nontoxic 5-fluorocytosine (5-FC) to the toxic 5-fluorouracil (5-FU).

Chain of nitroreductase enzyme from E. coli (P38489 whole entry): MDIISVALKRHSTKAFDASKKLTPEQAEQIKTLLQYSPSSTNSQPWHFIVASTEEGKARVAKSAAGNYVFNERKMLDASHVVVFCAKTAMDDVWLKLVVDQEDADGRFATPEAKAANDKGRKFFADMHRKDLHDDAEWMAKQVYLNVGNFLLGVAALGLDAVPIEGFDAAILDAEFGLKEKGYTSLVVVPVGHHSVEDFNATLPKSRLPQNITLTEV
Description for SCCVII tumor cells: The ability of recombinant C. acetobutylicum to activate CB1954 was also tested in vitro, also as described in Example 1. Briefly, recombinant and wild type C. acetobutylicum were inoculated into medium, and after overnight incubation, the cultures were centrifuged and the supernatant collected. The supernatant was added to cultures of SCCVII tumor cells, along with addition of various concentrations of CB1954 in DMSO. After incubation for two hours, the cells were counted by hemocytometer, and appropriate dilutions plated and incubated for colony growth.
In order to test the ability of recombinant C. acetobutylicum to activate CB1954, recombinant and wild type C. acetobutylicum were inoculated into 20 ml of medium. After overnight incubation, the cultures were centrifuged and the supernatant collected and diluted 1:3 with Waymouth's growth medium. […] To these cultures, different concentrations of CB1954 in DMSO were added, and the amount of DMSO adjusted in all of the cultures (including the controls) to 1% DMSO. Controls consisted of cell culture with only the supernatant/cell culture medium mixture. […]
After a 2 hr incubation in air at 37° C., the medium was removed, all the plates were washed 3 times with PBS, trypsinized, the cells counted by hemocytometer, and appropriate dilutions plated and incubated for 10 days in a 5% CO2 incubator at 370 C for colony growth.

Consider glucuronide conjugate of epirubicin, for which, in [1], the “toxicity when combined with a Mab-β-glucuronidase conjugate” value is “as toxic as epirubicin”. Moreover, the “toxicity of the prodrug (fold less toxic)” value in series [1] (prodrug alone) was “approximately 100 fold”.

For the molecule `O=C(O)[C@H]1O[C@@H](n2cc(F)c(=O)[nH]c2=O)[C@H](O)[C@@H](O)[C@@H]1O` [1-N-β-glucuronide of 5-fluorouracil], in series [2], the stability in vivo result is given as “stable in vivo”.

As to “butylated ammonium salt of the glucuronide conjugate of hydroxyanaline mustard”, in [3], the “potency relative to hydroxyanaline mustard (times less potent)” value is on record as 10^3 times.

For `NC(=O)c1cc(N2CC2)c([N+](=O)[O-])cc1[N+](=O)[O-]` [CB1954, 5-[aziridine-1-yl]-2,4-dinitrobenzamide], the “activity on Walker carcinoma cells in vitro” value with Walker carcinoma cells is listed as “potent activity”. Further, the “activity against Walker 256 rat carcinoma in vivo” value with Walker 256 rat carcinoma was “potent activity”. In series [4], the “activity against a range of mouse and human tumor cell lines” value was “poor activity”; the “difference in sensitivity between rat and human cells (factor)” value was 10^4-10^5. Besides, in series [5], the “rate of reduction of CB1954 relative to that of the rat DT diaphorase” value is 60 times. In addition, in the series with SCCVII tumor cells, the “enhancement of the toxicity of CB1954 by supernatant from transformed C. acetobutylicum” value is on record as “approximately 10 fold”.

For the molecule `O=c1[nH]cc(F)c(=O)[nH]1` [5-FU, 5-fluorouracil], the “effect of cell extract from recombinant C. sporogenes on sensitivity to 5-FU” value with SCCVII cells is “nor did cell extract from recombinant C. sporogenes affect sensitivity to 5-FU”.

In the case of `Nc1nc(=O)[nH]cc1F` [5-FC, 5-fluorocytosine], in the series with SCCVII cells, the “effect of cell extract from C. sporogenes transformed with an empty vector on sensitivity” value was “did not affect the sensitivity” and the “toxicity of 5-FC plus cell extract from recombinant C. sporogenes compared with 5-FU” value is “same toxicity as 5-FU”. In the series on SCCVII cells (cell extract 5, 10, 20 μg/ml), the “increase in cytotoxicity of 5-FC by cell extract from recombinant C. sporogenes expressing cytosine deaminase (factor)” value is given as 10^4.

The values are drawn from patent publication US6984513B2, “Anaerobe targeted enzyme-mediated prodrug therapy” (priority 1994, dated 2006).
